Assays:
[1] = test system: HIF1α transcriptional activity; assay type: cell-based; details: Homo sapiens, 24 h, read-out: Menu IC50 ± SEM
platelet aggregation = details: could lead to internal bleeding side effects; cited from earlier work

SMILES	IC50 [1] [nM]	inhibition of platelet aggregation (platelet aggregation)
CN1C(=O)[C@]2(Cc3cn([C@]45C[C@@]67SS[C@@](CO)(C(=O)N6[C@H]4Nc4ccccc45)N(C)C7=O)c4ccccc34)SS[C@@]1(CO)C(=O)N2C [Chetomin]	40 ± 10	–
OCc1ccc(-c2nn(Cc3ccccc3)c3ccccc23)o1 [YC-1, 3-(5′-hydroxymethyl-2′-furyl)-1-benzyl indazole]	–	strong inhibition of platelet aggregation

Reference: PMC5915369 (Anticancer research, 2015)
